According to US10392369B2, “N-[(pyrimidinyloxy)propanyl]benzamides” (Boehringer Ingelheim International GmbH, priority 2016, dated 2019):
Read-outs that look alike come from different tables or passages of the source.

What was measured:
human Orexin 1 receptor = target: T1, human Orexin 1 receptor (Homo sapiens, UniProt O43613); assay: Assay A: OX1R IP1 (in vitro OX1R potency); type: cell-based; conditions: for Kb: Table 3, read-out: Assay A OX1R Kb (Orexin A concentration); for OX1R potency compared to Example 91 in WO2016/034882 / OX1R selectivity over OX2R (selectivity ratio OX2R Kb/OX1R Kb) compared to Example 91 in WO2016/034882: versus Example 91 in WO2016/034882
T1 construct: stably expressing the full-length human Orexin 1 receptor; expressed in transfected cells; host or cells: CHO-K1 (CHO-K1/hOx1), co-expressing the aequorin photoprotein
T1 sequence (O43613 1-425): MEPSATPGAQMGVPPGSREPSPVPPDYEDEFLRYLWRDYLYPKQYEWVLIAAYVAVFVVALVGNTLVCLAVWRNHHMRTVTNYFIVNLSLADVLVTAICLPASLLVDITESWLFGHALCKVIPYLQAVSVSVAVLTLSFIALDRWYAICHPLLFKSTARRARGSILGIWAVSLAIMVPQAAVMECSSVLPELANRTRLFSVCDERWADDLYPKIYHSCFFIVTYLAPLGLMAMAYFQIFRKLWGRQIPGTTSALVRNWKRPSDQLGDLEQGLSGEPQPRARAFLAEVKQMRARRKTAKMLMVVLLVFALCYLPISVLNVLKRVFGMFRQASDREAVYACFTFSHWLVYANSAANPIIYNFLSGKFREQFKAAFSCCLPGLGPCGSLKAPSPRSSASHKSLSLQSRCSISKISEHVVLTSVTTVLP
Description: Activation of the orexin receptors expressed in cell lines results in an increase in intracellular IP3 concentration. IP1, a downstream metabolite of IP3, accumulates in cells following receptor activation and is stable in the presence of LiCl. Using Homogeneous Time-Resolved Fluorescence technology with Lumi4-Tb cryptate (commercially available from Cisbio Bioassay.) and a suitable fluorescence plate reader. […] This technique is used to characterize pharmacological modification of the orexin receptors.
A. In Vitro Testing of OX1R Potency: OX1R IP1
IP1 measurements are performed in CHO-K1 cells stably expressing the full-length human Orexin 1 receptor and the aequorin photoprotein. Cells are cultivated in Ham's nutrient mixture F12 medium with 10% fetal calf serum, in a 37° C., 95% humidity and 5% CO2 incubator. The CHO-K1/hOx1 cell mass is expanded to larger cell numbers. The cells are obtained as frozen cells in cryo-vials and stored until use at −150° C. […] In preparation for the assay, 24 hours before the assay, the cells are thawed at 37° C. and immediately diluted with cell culture medium. After centrifugation, the cell pellet is re-suspended in medium and then distributed into the assay plates with a density of 10000 cells/25 μL per well. The plates are incubated for one hour at room temperature to reduce edge effects before they are incubated for 24 hours at 37° C./5% CO2. Compounds are prepared by an 8-point serial dilution in DMSO and a final dilution step into assay buffer (HBSS with 20 mM HEPES, 0.1% BSA and 50 mM LiCl, pH 7.4) to ensure a final DMSO concentration of 1% in the assay.
(§1) On the day of the assay, cells in the plate are washed twice with 60 μL assay buffer (20 μL buffer remained in the wells after washing), followed by adding 5 μL per well of compounds diluted in assay buffer. After 15 minutes of incubation at room temperature 5 μL per well of Orexin A peptide (final concentration: 0.5 nM and/or 50 nM) dissolved in assay buffer is added to the assay plate. The assay plate is incubated for 60 minutes at 37° C. Then 5 μl per well of Anti-IP1-Cryptate Tb solution and 5 μl per well of IP1-d2 dilution are added and the plate is incubated for a further 60 minutes light protected at room temperature.
(§2) 8-point four parametric non-linear curve fitting and determination of IC50 values and Hill slopes is performed using a regular analysis software e.g. AssayExplorer (Accelrys). In order to establish an agonist concentration independent parameter, Kb values are calculated using the following equation: IC50/((2+(A/EC50)^n)^1/n−1) (with A=concentration agonist, EC50=EC50 agonist, n=Hill slope agonist).

human orexin 2 receptor = target: T2, human orexin 2 receptor (Homo sapiens, UniProt O43614); assay: Assay B: OX2R IP1 (in vitro OX2R potency); type: cell-based; conditions: Table 3; 0.5 nM Orexin A
T2 construct: stably expressing the full-length human orexin 2 receptor; expressed in transfected cells; host or cells: CHO-K1 (CHO-K1/hOx2), co-expressing the aequorin photoprotein
T2 sequence (O43614 1-444): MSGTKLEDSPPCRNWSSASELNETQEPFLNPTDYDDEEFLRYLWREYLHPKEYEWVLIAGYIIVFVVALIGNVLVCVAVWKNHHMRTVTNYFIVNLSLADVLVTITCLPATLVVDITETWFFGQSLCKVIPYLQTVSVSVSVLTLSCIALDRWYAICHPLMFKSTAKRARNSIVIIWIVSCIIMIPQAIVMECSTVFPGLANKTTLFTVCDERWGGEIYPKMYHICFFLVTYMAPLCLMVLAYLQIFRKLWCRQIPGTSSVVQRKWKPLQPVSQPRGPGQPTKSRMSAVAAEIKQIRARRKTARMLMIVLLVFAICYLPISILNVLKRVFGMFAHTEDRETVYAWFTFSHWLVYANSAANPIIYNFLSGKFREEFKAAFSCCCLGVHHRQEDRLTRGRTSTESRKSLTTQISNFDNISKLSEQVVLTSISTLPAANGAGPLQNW
Description: Activation of the orexin receptors expressed in cell lines results in an increase in intracellular IP3 concentration. IP1, a downstream metabolite of IP3, accumulates in cells following receptor activation and is stable in the presence of LiCl. Using Homogeneous Time-Resolved Fluorescence technology with Lumi4-Tb cryptate (commercially available from Cisbio Bioassay.) and a suitable fluorescence plate reader. […] Chem. Genomics 2009, 3, 22-32. This technique is used to characterize pharmacological modification of the orexin receptors.
B. In Vitro Testing of OX2R Potency: OX2R IP1
IP1 measurements are performed in CHO-K1 cells stably expressing the full-length human orexin 2 receptor and the aequorin photoprotein. Cells are cultivated in Ham's nutrient mixture F12 medium with 10% fetal calf serum, in a 37° C., 95% humidity and 5% CO2 incubator. The CHO-K1/hOx2 cell mass is expanded to larger cell numbers. The cells are obtained as frozen cells in cryo-vials and stored until use at −150° C. The viability of the cells after thawing is >90%. In preparation for the assay, 24 hours before the assay, the cells are thawed at 37° C. and immediately diluted with cell culture medium. After centrifugation, the cell pellet is resuspended in medium and then distributed into the assay plates with a density of 5000 cells/25 μL per well. The plates are incubated for one hour at room temperature to reduce edge effects before they are incubated for 24 hours at 37° C./5% CO2. Compounds are prepared by a 8-point serial dilution in DMSO and a final dilution step into assay buffer (HBSS with 20 mM HEPES, 0.1% BSA and 50 mM LiCl, pH 7.4) to ensure a final DMSO concentration of 1% in the assay.
as §1, with “concentration: 0.5 nM) dissolved” for “concentration: 0.5 nM and/or 50 nM) dissolved”, “are added to all well of the plate and the” for “are added and the”, “room temperature. The emission at 615 nm and 665 nm (Excitation wavelength: 320 nm) are measured using an EnVision reader (PerkinElmer). The ratio between the emission at 665 nm and 615 is calculated by the reader.” for “room temperature.”
as §2, with “of […]” for “of IC50”, “slope agonist) (see P. Leff, I. G. Dougall, Trends Pharmacol. Sci. 1993, 14(4), 110-112).” for “slope agonist).”

OX2R = target: T3, OX2R (Homo sapiens, UniProt O43614); conditions: cited from earlier work
T3 sequence (O43614 1-444): T2 sequence (O43614 1-444)

Compound	Kb (human Orexin 1 receptor; 0.5 nM Orexin A) [nM]	Kb (human Orexin 1 receptor; 50 nM Orexin A) [nM]	OX1R potency compared to Example 91 in WO2016/034882 (human Orexin 1 receptor; in words)	OX1R selectivity over OX2R (selectivity ratio OX2R Kb/OX1R Kb) compared to Example 91 in WO2016/034882 (human Orexin 1 receptor; in words)	Kb (human orexin 2 receptor) [nM]	OX2R Kb/OX1R Kb (human Orexin 1 receptor)	OX2R pIC50 (OX2R; Table 3 of WO2016/034882)	IC50 (OX2R; corresponds to pIC50 of Table 3 of WO2016/034882) [nM]	OX1R selectivity compared to Example 14 in WO2016/034882 (human Orexin 1 receptor; in words, versus Example 14 in WO2016/034882)
CCN(C(=O)c1cccc(C)c1-n1nccn1)[C@@H](C)COc1ncc(C(F)(F)F)cn1 [Example 11]	1.3	1.4	increase	increase	160	–	–	–	–
CCN(C(=O)c1cccc(F)c1-n1nccn1)[C@@H](C)COc1ncc(C(F)(F)F)cn1 [Example 1]	1.7	2.5	–	more selective	425	–	–	–	–
CCN(C(=O)c1ccc(C)cc1-c1nnc(C)o1)[C@@H](C)COc1ncc(C(F)(F)F)cn1 [Example 19]	7.3	–	–	increase in OX1R selectivity	6640	909	–	–	–
CCN(C(=O)c1ccc(C)c(C)c1-n1nccn1)[C@@H](C)COc1ncc(C(F)(F)F)cn1 [Example 10]	–	0.65	increase	increase	565	869	–	–	–
CCN(C(=O)c1ccc(OC)cc1-n1nccn1)[C@@H](C)COc1ncc(C(F)(F)F)cn1 [Example 30]	1.8	–	increase	increase	579	322	–	–	–
CCN(C(=O)c1cccc(F)c1-c1nnc(C)o1)[C@@H](C)COc1ncc(C(F)(F)F)cn1 [Example 18]	16	–	–	increase in OX1R selectivity	6640	415	–	–	–
CCN(C(=O)c1cc(F)ccc1-n1nccn1)[C@@H](C)COc1ncc(C(F)(F)F)cn1 [Example 20]	2.6	–	–	more selective	803	309	–	–	–
CCN(C(=O)c1cc(OC)ccc1-n1nccn1)[C@@H](C)COc1ncc(C(F)(F)F)cn1 [Example 14]	0.97	1.21	increase	increase	253	–	–	–	–
CC[C@@H](CNc1ncc(C(F)(F)F)cn1)N(C)C(=O)c1c(F)cccc1-n1nccn1 [Ex 91 in WO2016/ 034882]	–	–	–	–	–	–	< 5.1	> 7950	–
CCN(C(=O)c1cccc(F)c1-c1ncccn1)[C@@H](C)COc1ncc(C(F)(F)F)cn1 [Example 32]	0.61	0.46	–	–	188	–	–	–	increase in OX1R selectivity
